PubChem BioAssay (NCI)
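Each compound was tested at five concentrations against cells in 96-well plates for 48 hours. GI50 = concentration required for 50% inhibition of growth. TGI: concentration producing complete growth inhibition.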

Legend:
Experiment in all cases: inhibition of tumour cell growth, NCI panel, 48 h
[1] = system: NCI-H460 lung
[2] = system: SNB-75 CNS
[3] = system: SK-MEL-5 melanoma
[4] = system: A498 renal
[5] = system: A549 NSCLC
[6] = system: EKVX NSCLC
[7] = system: UO-31 renal
[8] = system: NCI-H522 lung
[9] = system: UACC-257 melanoma
[10] = system: SK-MEL-28 melanoma
[11] = system: ACHN renal
[12] = system: SW-620 colon
[13] = system: 786-0 renal
[14] = system: K-562 leukemia
[15] = system: SK-OV-3 ovarian
[16] = system: SR leukemia

Compound	TGI [1]	TGI [2]	TGI [3]	TGI [4]	TGI [5]	TGI [6]	TGI [7]	TGI [8]	TGI [9]	TGI [10]	TGI [11]	TGI [12]	TGI [13]	TGI [14]	TGI [15]	TGI [16]	GI50 [16]	GI50 [5]	GI50 [7]	GI50 [10]
O=C(NCCCCCCCCNC(=O)Nc1cccc2ccccc12)Nc1cccc2ccccc12	13.4 µM	> 100 µM	> 100 µM	34.7 µM	> 100 µM	> 100 µM	47.5 µM	87 µM	> 100 µM	> 100 µM	> 100 µM	47.3 µM	24.9 µM	46.7 µM						
Cc1cc(N(CCC#N)CCC#N)ccc1/C=C1N=C(/C=C\c2ccccc2)N(NC(=O)CC(=O)Nc2ccccc2Cl)C\1=O	> 100 µM	> 100 µM	> 100 µM	> 100 µM	> 100 µM		> 100 µM	> 100 µM	> 100 µM	> 100 µM	> 100 µM	> 100 µM	> 100 µM	> 100 µM	> 100 µM					
O=C1NC(=O)C(CCC(=O)c2cccc3ccccc23)C(=O)N1	> 100 µM	> 100 µM	> 100 µM	> 100 µM	> 100 µM		> 100 µM		> 100 µM	> 100 µM	> 100 µM	> 100 µM	> 100 µM	> 100 µM	> 100 µM	> 100 µM				
CC(C(=O)NCNC(=O)c1ccccc1)C(=O)Nc1ccccc1 (configuration not stated)	> 100 µM	> 100 µM	> 100 µM		> 100 µM	> 100 µM	> 100 µM	> 100 µM	> 100 µM		> 100 µM	> 100 µM	> 100 µM		> 100 µM					
CCOC(=O)C(C)NC(=O)NC12CC3CC(CC(F)(C3)C1)C2 (configuration not stated)	> 100 µM	> 100 µM	> 100 µM	> 100 µM	> 100 µM	> 100 µM	> 100 µM	> 100 µM	> 100 µM	> 100 µM	> 100 µM	> 100 µM	> 100 µM	> 100 µM	> 100 µM					
CCOC(=O)c1c(NC(=S)Nc2ccccc2)sc2c1CCN(C)C2	> 100 µM		> 100 µM	> 100 µM	> 100 µM	> 100 µM	> 100 µM		> 100 µM		> 100 µM		> 100 µM	> 100 µM						
COc1ccccc1NC1Oc2cc3c(cc2C(c2cc(OC)c(OC)c(OC)c2)C1C)OCO3 (configuration not stated)	> 100 µM	16.7 µM	16.8 µM	> 30 µM	> 100 µM	> 100 µM	43.8 µM	4.82 µM	> 100 µM	> 100 µM	> 100 µM	> 100 µM	36.8 µM	12.5 µM	> 31.1 µM					
COc1cc(/C=C2\CCC(C)C3=C2N=c2s/c(=C/c4ccc(Cl)cc4)c(=O)n2C3c2cc(OC)c(OC)c(OC)c2)cc(OC)c1OC (configuration not stated)		> 100 µM	> 100 µM	> 100 µM	> 100 µM	> 100 µM	> 100 µM		> 100 µM	> 100 µM	> 100 µM	> 100 µM	> 100 µM	> 100 µM	> 100 µM	> 100 µM				
CC(=O)NC1=NC(=O)/C(=C/c2ccccc2Cl)N1C	> 100 µM	> 100 µM	> 100 µM		> 100 µM	> 100 µM	> 100 µM	> 100 µM	> 100 µM	> 100 µM	> 100 µM	> 100 µM	> 100 µM		> 100 µM					
CCOC(=O)C(=[N+]=[N-])C(=O)CSC#N			> 100 µM	> 100 µM	> 100 µM	> 100 µM	> 100 µM	79.4 µM	> 100 µM	> 100 µM	55.3 µM	> 100 µM	> 100 µM		> 100 µM					
CC(C)N(C(=O)C12C3C4C5C3C1(C(=O)O)C5C42)C(C)C (configuration not stated)	> 100 µM	> 100 µM	> 100 µM	> 100 µM	> 100 µM	> 100 µM	> 100 µM	> 100 µM	> 100 µM	> 100 µM	> 100 µM	> 100 µM	> 100 µM	> 100 µM	> 100 µM					
CCOC(=O)NC(=O)c1cn(CCSCCOC(=O)NCCCCCCNC(=O)OCCSCCn2cc(C(=O)NC(=O)OCC)c(=O)n(C)c2=O)c(=O)n(C)c1=O	> 100 µM	> 100 µM			> 100 µM	> 100 µM	> 100 µM		> 100 µM	> 100 µM	> 100 µM	> 100 µM	79.8 µM		> 100 µM	> 100 µM				
CC(=O)NC(CCCCNCc1ccccc1)C(=O)NCc1ccccc1 (configuration not stated)	> 100 µM	> 100 µM	> 100 µM	> 100 µM	> 100 µM	> 100 µM	> 100 µM	> 100 µM	> 100 µM	> 100 µM	> 100 µM	> 100 µM	> 100 µM	> 100 µM	> 100 µM					
O=C1/C(=C/c2ccccc2Cl)COc2ccc(Br)cc21	> 100 µM	> 100 µM		> 100 µM	> 100 µM	> 100 µM	> 100 µM	80.1 µM	> 100 µM	> 100 µM	> 100 µM	> 100 µM	> 100 µM	31.7 µM	85 µM					
NC(=O)N/N=C(\CC1OC(=O)c2ccccc21)c1ccc([N+](=O)[O-])cc1 (configuration not stated)	> 100 µM	78.6 µM	47.2 µM	> 100 µM	> 100 µM	> 100 µM	> 100 µM		> 100 µM		> 100 µM	> 100 µM	32 µM			> 100 µM				
O=S(Cc1ccccc1)c1ccccc1Cn1cccc1 (configuration not stated)	> 100 µM	> 100 µM	> 100 µM		> 100 µM	> 100 µM	> 100 µM		> 100 µM	> 100 µM	> 100 µM	> 100 µM	> 100 µM	> 100 µM	> 100 µM	83.4 µM				
COc1cc2c(c(OC)c1OC)-c1ccc(SC)c(=O)cc1[C@@H](NC(=O)c1cccc([N+](=O)[O-])c1)CC2			0.0467 µM	0.0479 µM	23.1 µM	27.3 µM	> 100 µM		33.9 µM	82.3 µM	> 100 µM	> 100 µM	11.8 µM	> 100 µM	0.0638 µM	0.0732 µM	0.00851 µM	0.033 µM	0.0276 µM	10.5 µM
